Patent US20220287995A1, “COMPOSITIONS AND METHODS FOR INHIBITING BACTERIAL VIRULENCE AND FLIM-BASED DEVICE AND METHOD FOR ANTIBIOTIC SUSCEPTIBILITY TESTING” (THE REGENTS OF THE UNIVERSITY OF CALIFORNIA, priority 2019, published 2022)

Tested on: P. aeruginosa
Assay: Fluorescence lifetime imaging microscopy (FLIM) phasor g-values of P. aeruginosa
Format: cell-based, Pseudomonas aeruginosa
Conditions: for enzyme-bound NADH pool: surface-attached P. aeruginosa treated with carbon source; for fluorescence lifetime g-value / change in FLIM g-value: surface-attached; for fluorescence lifetime g-value: modified minimal medium, single carbon source at 0.2%; for change in FLIM g-value: rich (PS:DB) medium, carbon source 0.2% added at 3 hours, harvested after 1 additional hour
Protocol: Fluorescence lifetime measurements were performed using a custom-built multiphoton microscope setup based on an Olympus FV1000 system and an Olympus IX81 microscope (Olympus, Waltham, Mass.) as described previously (68). The FLIM microscope uses an 80 MHz ultrafast Ti:Sapphire Mai Tai laser (Spectra-physics, Santa Clara, Calif.) set at 740 nm for mulitphoton excitation. The setup used a 690-nm SP dichroic-460/80 nm filter pair for separating emission and a PlanApo N Olympus oil immersion 60× (1.42 NA) objective (Olympus, Waltham, Mass.), which is capable of bacterial single-cell resolution imaging. An H7422P-40 photomultiplier tube module (Hamamatsu, Bridgewater, N.J.) and A320 FastFLIM Box (ISS, Champaign, Ill.) were used to measure fluorescence lifetime. Image acquisition was controlled by SimFCS software version 4 (64-bit) (Laboratory for Fluorescence Dynamics, Irvine, Calif.). Planktonic and surface-attached cells were isolated by modifying a protocol described previously (12, 50) (FIG. 11A).
Masks for bacterial cells were created through SimFCS using fluorescence intensity images and image intensity thresholding (FIG. 11B). Fluorescence lifetimes within the masked areas were transformed using
The microscope was calibrated before each session by setting the fluorescence lifetime obtained for 10 μM rhodamine 110 (Sigma, St. Louis, Mo.) to 4.0 ns. The laser power was set to 20% (<3 mW at back aperture of the microscope) using an acousto-optic modulator (AA Opto Electronic, Orsay, France). Sub-cellular fluorescence lifetimes (FIG. 1A) were collected using the 20× digital zoom mode at a rate of 1.7 sec/frame. All other P. aeruginosa measurements were performed using the 6× digital zoom mode using the same frame rate. For all measurements, 40 sequential frames were acquired to generate a single FLIM image.
P. aeruginosa strains were cultured overnight in PS:DB, diluted 1:100 into 35 mm glass-bottom dishes (MatTek Corporation, Ashland, Mass.) containing the same medium, and cultured for 4 to 6 hours (FIGS. 2E-F, 4A, 5A, and 8C). Alternatively, strains were cultured overnight in minimal medium A, diluted 1:100 into modified minimal media A with single carbon sources in culture tubes (FIGS. 6D-E and 7A-B, D) or glass-bottom dishes and cultured to an OD600 of 0.2 (FIG. 2E-F).
Planktonic cells were transferred to a new glass-bottom dish, immobilized using an agar pad, and imaged immediately (FIG. 11A). Agar pads were made using 1% Bacto agar (BD, Franklin Lakes, N.J.) and DB buffer (1, 2) or modified minimal medium A containing no carbon source for strains that were cultured in PS:DB or modified minimal medium, respectively, and were cut into 1.5×1.5 cm squares. Surface-attached cells were isolated by aspirating the supernatant from the dish, washing the dish to remove planktonic cells with DB buffer or modified minimal medium with no carbon source for strains cultured in PS:DB or modified minimal medium, respectively, and placing an agar pad on the dish surface, and were imaged immediately. Imaging was performed at room temperature.
For experiments involving FLIM measurements of the effects of antimycin A (FIG. 7D), P. aeruginosa were grown in culture tubes to saturation in modified minimal medium A containing 0.2% citrate, diluted 1:100 into the same medium in culture tubes, supplemented with 10 μM antimycin A (Sigma, St. Louis, Mo.) with 0.1% ethanol or with 0.1% ethanol, cultured to an OD600 of 0.2, and immediately measured for fluorescence lifetime. Fluorescence lifetimes for pyocyanin and pyoverdine (FIG. 7C) were measured using solutions of 6.2 mM pyocyanin (P0046, Sigma, St. Louis, Mo.) in DMSO and 5 mg/mL pyoverdine (P8124, Sigma, St. Louis, Mo.) in deionized water, respectively. For FIG. 6D, cells with fluorescence intensities below a value of 1.0, as reported by the SimFCS software, were excluded from the analysis. […]

Compound	enzyme-bound NADH pool	fluorescence lifetime g-value	change in FLIM g-value
OCC(O)CO [glycerol]	relatively small impacts	increasing g-values	smallest changes
O=C(O)CC(O)(CC(=O)O)C(=O)O [citrate]	decreased	increasing g-values	greatest increases
